Where two headings read alike, the source gives them in different places. *1 amine or outer side, *2 acyl side, *3 side chain or, on linkers, in order; H or OH if unused. Where a SMILES comes first, the peptide text is derived from it. Side-chain parts run from the residue outwards. [ ]: non-standard residue; d: D form. The star is where a group is joined. C20 diacid = O=C(O)CCCCCCCCCCCCCCCCCCC(=O)*; γGlu = O=C(O)[C@H](CCC(=O)[*:2])N[*:1]; AEEA = NCCOCCOCC(=O)O; Aib = CC(C)(N)C(=O)O
Assays:
[1] = biological target: T1, human GLP-2 receptor (Homo sapiens, UniProt O95838, D470N); test: GLP-2 receptor potency assay (cAMP ALPHASCREEN, HEK293 cells stably expressing GLP-2 R); type: cell-based; conditions: cAMP response, HEK293 cells expressing human GLP-2 R; read-out: EC50 GLP-2
T1 construct: expressed in transfected cells
T1 sequence (O95838 1-553 D470N): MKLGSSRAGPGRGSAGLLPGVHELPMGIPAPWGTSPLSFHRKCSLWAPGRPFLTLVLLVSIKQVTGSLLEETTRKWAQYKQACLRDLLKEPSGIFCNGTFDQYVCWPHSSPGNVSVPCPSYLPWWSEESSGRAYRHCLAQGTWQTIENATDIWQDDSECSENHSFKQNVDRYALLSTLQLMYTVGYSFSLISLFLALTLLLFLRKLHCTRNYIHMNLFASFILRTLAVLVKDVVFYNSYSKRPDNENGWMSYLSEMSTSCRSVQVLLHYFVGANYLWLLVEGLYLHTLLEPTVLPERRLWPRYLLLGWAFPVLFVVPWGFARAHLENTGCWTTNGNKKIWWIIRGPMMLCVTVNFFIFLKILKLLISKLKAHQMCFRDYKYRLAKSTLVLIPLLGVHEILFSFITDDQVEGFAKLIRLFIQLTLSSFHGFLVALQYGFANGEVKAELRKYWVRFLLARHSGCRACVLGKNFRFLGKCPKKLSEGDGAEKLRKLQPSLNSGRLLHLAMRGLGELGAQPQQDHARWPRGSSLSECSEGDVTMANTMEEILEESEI
Description: One useful in vitro assay for measuring GLP-1 and GLP-2 receptor activity is quantitation of cAMP, i.e. 3′-5′-cyclic adenosine monophosphate, which is a second messenger essential in many biological processes, and one of the most ubiquitous mechanisms for regulating cellular functions.
For subcloning into a mammalian expression vector, primers for subcloning were obtained from DNA-Technology, Risskov, Denmark. The 5′ and 3′ primers used for the PCR reaction include terminal restriction sites for cloning and the context of the 5′ primer is modified to a Kozak consensus without changing the sequence of the product encoded by the ORF. […] The generated PCR product was purified using GFX PCR and Gel band purification kit, digested with restriction enzymes and cloned into the mammalian expression vector using Rapid DNA Ligation Kit. Ligation reaction was transformed to XL10 Gold Ultracompetent cells and colonies were picked for DNA production using ENDOFREE® Plasmid maxi kit. Subsequent sequence analysis was conducted by MWG Eurofins, Germany.
HEK293 cells were transfected using the LIPOFECTAMINE® PLUS transfection method. The day before transfection, HEK293 cells were seeded in two T75 flasks at a density of 2×10^6 cells/T75 flask in cell culturing medium without antibiotics. On the day of transfection, cells were washed with 1× DPBS and medium was replaced with OPTI-MEM© to a volume of 5 mL/T75 flask before addition of LIPOFECTAMINE®-plasmid complexes were added gently and drop wise to the cells in T75 flasks and replaced with growth medium after 3 hours and again to growth medium supplemented with 500 μg/mL G418 after 24 hours. Following 4 weeks in G418 selection, clones were picked and tested in a functional GLP-2 receptor potency assay as described below.
The cAMP ALPHASCREEN® assay from Perkin Elmer was used to quantitate the cAMP response to activation of the GLP1 and GLP2 receptor, respectively. […] Data from test compounds eliciting an increase in the intracellular level of cAMP were normalized relative to the positive and negative control (vehicle) to calculate the EC50 and maximal response from the concentration response curve.

[2] = Solubility assessment (turbidity absorbance at 325 nm); type: physicochemical
Protocol: A stock solution of the test peptide (2 mg/ml; determined from the weighed amount of peptide) in demineralized water adjusted to pH 2.5 with HCl was prepared, and aliquots were diluted 1:1 in 100 mM acetate buffer (pH 4.0 and pH 5.0), 100 mM histidine buffer (pH 6.0 and pH 7.0) and 100 mM phosphate buffer (pH 6.0, pH 7.0 and pH 7.5), respectively, and loaded in a standard flat-bottom, non-sterile 96-well UV Microplate. The absorbance of samples (single samples, n=1) at 280 and 325 nm was measured in an absorbance-based plate reader, which was preheated to ambient temperature (typically 25° C.).

[3] = Chemical stability (RP-HPLC normalized purity after incubation at 40° C.); type: physicochemical; conditions: 14-day incubation, 0.2 mg/ml, normalized purity (area-%); for pH 7 normalized stability: pH 7, 40° C.
Summary of the method: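 Peptide at 0.2 mg/ml final in water adjusted to pH 6, 7, 7.5 or 9, incubated at 40° C for 14 days. Purity measured as main-peak area-% by C18 RP-HPLC (acetonitrile/TFA/water gradient, UV 220 nm) and normalized to T=0 set at 100 for each pH.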

[4] = 100 mM acetate buffer pH 4.0, ambient temperature, read-out: Solubility Acetate buffer pH 4
[5] = 100 mM acetate buffer pH 5.0, ambient temperature, read-out: Solubility Acetate buffer pH 5
[6] = 100 mM histidine buffer pH 6.0, ambient temperature, read-out: Solubility Histidine buffer pH 6
[7] = 100 mM histidine buffer pH 7.0, ambient temperature, read-out: Solubility Histidine buffer pH 7
[8] = 100 mM phosphate buffer pH 6.0, ambient temperature, read-out: Solubility Phosphate buffer pH 6
[9] = 100 mM phosphate buffer pH 7.0, ambient temperature, read-out: Solubility Phosphate buffer pH 7
[10] = 100 mM phosphate buffer pH 7.5, ambient temperature, read-out: Solubility Phosphate buffer pH 7.5

EC50 [1] [nM]	solubility [2, 4] [µg/mL]	solubility [2, 5] [µg/mL]	solubility [2, 6] [µg/mL]	solubility [2, 7] [µg/mL]	solubility [2, 8] [µg/mL]	solubility [2, 9] [µg/mL]	solubility [2, 10] [µg/mL]	pH 7 normalized stability [3]	pH 6 normalized stability ([3]; pH 6, 40° C.)	SMILES
0.38										CC[C@H](C)[C@H](NC(=O)[C@H](Cc1ccccc1)NC(=O)[C@H](CC(=O)O)NC(=O)[C@H](CCCCNC(=O)COCCOCCNC(=O)COCCOCCNC(=O)CC[C@H](NC(=O)CCCCCCCCCCCCCCCCCCC(=O)O)C(=O)O)NC(=O)[C@H](C)NC(=O)[C@H](C)NC(=O)[C@H](CCC(N)=O)NC(=O)[C@H](CCC(=O)O)NC(=O)[C@H](CC(=O)O)NC(=O)[C@H](CC(C)C)NC(=O)[C@@H](NC(=O)[C@@H](NC(=O)[C@H](C)NC(=O)[C@H](CC(C)C)NC(=O)[C@H](CCC(=O)O)NC(=O)[C@H](CO)NC(=O)[C@@H](NC(=O)[C@H](Cc1ccccc1)NC(=O)[C@@H](NC(=O)CNC(=O)[C@H](CCC(=O)O)NC(=O)C(C)(C)NC(=O)[C@@H](N)Cc1c[nH]cn1)[C@@H](C)O)[C@@H](C)O)[C@@H](C)O)[C@@H](C)CC)C(=O)N[C@@H](C)C(=O)N[C@@H](Cc1c[nH]c2ccccc12)C(=O)N[C@@H](CC(C)C)C(=O)N[C@H](C(=O)N[C@@H](CCC(=O)O)C(=O)N[C@@H](Cc1c[nH]cn1)C(=O)N[C@@H](CCCCN)C(=O)N[C@H](C(=O)N[C@H](C(=O)N[C@@H](CC(=O)O)C(=O)O)[C@@H](C)O)[C@@H](C)CC)[C@@H](C)CC [Compound 46] (H-H[Aib]EGTFTSELATILDEQAAK([AEEA-AEEA-γGlu-C20 diacid])DFIAWLIEHKITD-OH)
	≥ 1000	< 1000	< 1000	≥ 1000	< 1000	≥ 1000	≥ 1000	A (>90% normalised stability)		CC[C@H](C)[C@H](NC(=O)[C@H](Cc1ccccc1)NC(=O)[C@H](CC(=O)O)NC(=O)[C@H](CCCNC(=N)N)NC(=O)[C@H](C)NC(=O)[C@H](C)NC(=O)[C@H](CCC(N)=O)NC(=O)[C@H](CCCCNC(=O)CC[C@H](NC(=O)CCCCCCCCCCCCCCCCC(=O)O)C(=O)O)NC(=O)[C@H](CC(=O)O)NC(=O)[C@H](CC(C)C)NC(=O)[C@@H](NC(=O)[C@@H](NC(=O)[C@H](C)NC(=O)[C@H](CC(C)C)NC(=O)[C@H](CCC(=O)O)NC(=O)[C@H](CO)NC(=O)[C@@H](NC(=O)[C@H](Cc1ccccc1)NC(=O)[C@H](CO)NC(=O)CNC(=O)[C@H](CCC(=O)O)NC(=O)C(C)(C)NC(=O)[C@@H](N)Cc1c[nH]cn1)[C@@H](C)O)[C@@H](C)O)[C@@H](C)CC)C(=O)N[C@@H](C)C(=O)N[C@@H](Cc1c[nH]c2ccccc12)C(=O)N[C@@H](CC(C)C)C(=O)N[C@H](C(=O)N[C@@H](Cc1c[nH]cn1)C(=O)N[C@@H](Cc1c[nH]cn1)C(=O)N[C@@H](CCCCN)C(=O)N[C@H](C(=O)N[C@H](C(=O)N[C@@H](CC(=O)O)C(=O)O)[C@@H](C)O)[C@@H](C)CC)[C@@H](C)CC [Compound 26] (HELM PEPTIDE1{H.[Aib].E.G.S.F.T.S.E.L.A.T.I.L.D.K.Q.A.A.R.D.F.I.A.W.L.I.H.H.K.I.T.D}|PEPTIDE2{[O=C(O)CCCCCCCCCCCCCCCCC(=O)[*:2]].[gGlu]}$PEPTIDE1,PEPTIDE2,16:R3-2:R2$$$V2.0)
	< 1000	< 1000	≥ 1000	≥ 1000	≥ 1000	≥ 1000	≥ 1000	A (>90% normalised stability)		CC[C@H](C)[C@H](NC(=O)[C@H](Cc1ccccc1)NC(=O)[C@H](CC(=O)O)NC(=O)[C@H](CCCNC(=N)N)NC(=O)[C@H](C)NC(=O)[C@H](C)NC(=O)[C@H](CCC(N)=O)NC(=O)[C@H](CCCCNC(=O)CC[C@H](NC(=O)CCCCCCCCCCCCCCCCC(=O)O)C(=O)O)NC(=O)[C@H](CC(=O)O)NC(=O)[C@H](CC(C)C)NC(=O)[C@@H](NC(=O)[C@@H](NC(=O)[C@H](C)NC(=O)[C@H](CC(C)C)NC(=O)[C@H](CCC(=O)O)NC(=O)[C@H](CO)NC(=O)[C@@H](NC(=O)[C@H](Cc1ccccc1)NC(=O)[C@H](CO)NC(=O)CNC(=O)[C@H](CCC(=O)O)NC(=O)C(C)(C)NC(=O)[C@@H](N)Cc1c[nH]cn1)[C@@H](C)O)[C@@H](C)O)[C@@H](C)CC)C(=O)N[C@@H](C)C(=O)N[C@@H](Cc1c[nH]c2ccccc12)C(=O)N[C@@H](CC(C)C)C(=O)N[C@H](C(=O)N[C@@H](CC(C)C)C(=O)N[C@@H](Cc1c[nH]cn1)C(=O)N[C@@H](CCCCN)C(=O)N[C@H](C(=O)N[C@H](C(=O)N[C@@H](CC(=O)O)C(=O)O)[C@@H](C)O)[C@@H](C)CC)[C@@H](C)CC [Compound 28] (HELM PEPTIDE1{H.[Aib].E.G.S.F.T.S.E.L.A.T.I.L.D.K.Q.A.A.R.D.F.I.A.W.L.I.L.H.K.I.T.D}|PEPTIDE2{[O=C(O)CCCCCCCCCCCCCCCCC(=O)[*:2]].[gGlu]}$PEPTIDE1,PEPTIDE2,16:R3-2:R2$$$V2.0)
	< 1000	< 1000	≥ 1000	≥ 1000	≥ 1000	≥ 1000	≥ 1000	A (>90% normalised stability)	A (>90% normalised stability)	CC[C@H](C)[C@H](NC(=O)[C@H](Cc1ccccc1)NC(=O)[C@H](CC(=O)O)NC(=O)[C@H](CCCNC(=N)N)NC(=O)[C@H](C)NC(=O)[C@H](C)NC(=O)[C@H](CCC(N)=O)NC(=O)[C@H](CCCCNC(=O)CC[C@H](NC(=O)CCCCCCCCCCCCCCCCC(=O)O)C(=O)O)NC(=O)[C@H](CC(=O)O)NC(=O)[C@H](CC(C)C)NC(=O)[C@@H](NC(=O)[C@@H](NC(=O)[C@H](C)NC(=O)[C@H](CC(C)C)NC(=O)[C@H](CCC(=O)O)NC(=O)[C@H](CO)NC(=O)[C@@H](NC(=O)[C@H](Cc1ccccc1)NC(=O)[C@@H](NC(=O)CNC(=O)[C@H](CCC(=O)O)NC(=O)C(C)(C)NC(=O)[C@@H](N)Cc1c[nH]cn1)[C@@H](C)O)[C@@H](C)O)[C@@H](C)O)[C@@H](C)CC)C(=O)N[C@@H](C)C(=O)N[C@@H](Cc1c[nH]c2ccccc12)C(=O)N[C@@H](CC(C)C)C(=O)N[C@H](C(=O)N[C@@H](CCC(N)=O)C(=O)N[C@@H](Cc1c[nH]cn1)C(=O)N[C@@H](CCCCN)C(=O)N[C@H](C(=O)N[C@H](C(=O)N[C@@H](CC(=O)O)C(=O)O)[C@@H](C)O)[C@@H](C)CC)[C@@H](C)CC [Compound 19] (HELM PEPTIDE1{H.[Aib].E.G.T.F.T.S.E.L.A.T.I.L.D.K.Q.A.A.R.D.F.I.A.W.L.I.Q.H.K.I.T.D}|PEPTIDE2{[O=C(O)CCCCCCCCCCCCCCCCC(=O)[*:2]].[gGlu]}$PEPTIDE1,PEPTIDE2,16:R3-2:R2$$$V2.0)
